Results: patent US20050203191A1, “1-Aminocyclohexane derivatives for the treatment of agitation and other behavioral disorders, especially those associated with alzheimer's disease” (priority 2004, published 2005)

System: patients with mild to moderate dementia of the Alzheimer's type
Test: MD-10: randomized, double-blind, placebo-controlled evaluation of memantine
Format: in vivo, human
Conditions: MD-10, week 24, ITT LOCF
Procedure: MD-10: MD-10 was a randomized, double-blind, placebo-controlled evaluation of the safety and efficacy of memantine in patients with mild to moderate dementia of the Alzheimer's type. The primary endpoints for MD-10 were ADAS-cog and CIBIC-plus. Other endpoints for MD-10 included ADCS-ADL, NPI, and RUD (Resource Utilization in Dementia).
The five memantine trials were evaluated using an analysis of patient for a population having an NPI agitation subscale score of >4 ([…]) and for a population having an NPI score of <4 ([…]). For each NPI population, changes in SIB, ADAS-cog and/or ADL were calculated using the least square (LS) mean difference for memantine and placebo-treated patients. Similarly, for each NPI population, the raw mean difference between memantine and placebo was calculated for the CIBIC-plus results.
For primary efficacy measurements the comparison between memantine and placebo was performed using two-way analysis of covariance (ANCOVA) with treatment group and center as the two factors, and the baseline scores as covariate. Both the LOCF imputation approach and the OC approach are performed at the end of the trials.
For secondary efficacy measurements, the comparison between memantine and placebo was performed using two-way analysis of covariance (ANCOVA) with treatment group and center as the two main effects, and the baseline scores as covariate. Descriptive statistics were calculated by Visit. Again, all analyses were performed using both the LOCF imputation approach and the OC approach.
Results of ANCOVA were summarized using least square (LS) means for each treatment group with corresponding standard error (SE), the between-treatment (2-24 week) difference in the least square means with corresponding 95% confidence interval, and the between-treatment p-value corresponds to the SAS Type III sum of squares.
In data Tables 5-19, the Overall Memantine versus Placebo columns of studies MD-01, MD-02, MD-10 and MD-12 used an ANCOVA model with baseline total score as covariate, treatment and study center as factors for SIB, ADL or ADAS-cog; CMH test controlling for study center for CIBIC-Plus. For MZ-9605, results are based on arithmetic means and the Wilcoxon-Mann-Whitney test. The Agitation score columns/NPI/antipsychotics columns, except CIBIS-Plus, calculated the p-values and LS mean differences within the subgroups from an ANCOVA model with baseline total score as covariate, subgroup (yes/no), treatment, and treatment by subgroup interactions as factors. For CIBIS-Plus, the p-values and raw mean differences within a subgroup were calculated using the CMH test controlling for study center.
Patients in the same five trials described above were stratified into two sub-groups in a second analysis, those with an NPI total score in the top quartile (≧75%), or those more severely impaired at baseline, and those with an NPI total score <75%, or less severe impairment at baseline. Similar to as in Example 1, results were evaluated using the change in SIB (cognitive endpoint), and change in ADCS-ADL (functional endpoint), using the LS mean. The change in the CIBIC-plus (global endpoint) was assessed using the raw mean.
A sub-population of patients from the five trials, MD-01, MD-02, MD-10, MD-12, and MZ-9605, were concurrently taking antipsychotics.

[1] = NPI total score ≧=75% (top quartile)
[2] = antipsychotics usage “YES” (N = n)
[3] = antipsychotics usage “YES” (N = y)
[4] = baseline NPI agitation score <4
[5] = baseline NPI agitation score ≧=4

SMILES: CC12CC3CC(C)(C1)CC(N)(C3)C2 [memantine, 1-amino-3,5-dimethyl adamantane]
- ADAS-cog (change) LS Mean Diff., MEM v. PLA (NPI total score <75%): −1.59
- ADAS-cog (change) mean (NPI total score <75%): −0.08
- ADCS-ADL (change) LS Mean Diff., MEM v. PLA (NPI total score <75%): 0.11
- ADCS-ADL (change) mean (NPI total score <75%): −2.67
- CIBIC-PLUS Raw Mean Diff., MEM v. PLA (NPI total score <75%): −0.32
- CIBIC-PLUS mean (NPI total score <75%): 4.16
- ADAS-cog (change) LS Mean Diff., MEM v. PLA [1]: −2.53
- ADAS-cog (change) mean [1]: −1.18
- ADCS-ADL (change) LS Mean Diff., MEM v. PLA [1]: 0.70
- ADCS-ADL (change) mean [1]: −5.04
- CIBIC-PLUS Raw Mean Diff., MEM v. PLA [1]: −0.3
- CIBIC-PLUS mean [1]: 4.33
- ADAS-COG (change) LS Mean Diff., MEM v. PLA (second parameter of Table 19) [2]: 0.31
- ADAS-COG (change) mean (second parameter of Table 19) [2]: −2.69
- ADAS-cog (change) LS Mean Diff., MEM v. PLA [2]: −1.93
- ADAS-cog (change) mean [2]: −0.54
- CIBIC-PLUS Raw Mean Diff., MEM v. PLA [2]: −0.29
- CIBIC-PLUS mean [2]: 4.18
- ADAS-COG (change) LS Mean Diff., MEM v. PLA (second parameter of Table 19) [3]: −0.017
- ADAS-COG (change) mean (second parameter of Table 19) [3]: −7.95
- ADAS-cog (change) LS Mean Diff., MEM v. PLA [3]: −0.74
- ADAS-cog (change) mean [3]: 1.42
- CIBIC-PLUS Raw Mean Diff., MEM v. PLA [3]: −0.51
- CIBIC-PLUS mean [3]: 4.40
- ADAS-cog (change) LS Mean Diff., MEM v. PLA [4]: −1.87
- ADAS-cog (change) mean [4]: −0.49
- ADCS-ADL (change) LS Mean Diff., MEM v. PLA [4]: 0.65
- ADCS-ADL (change) mean [4]: −3
- CIBIC-PLUS Raw Mean Diff., MEM v. PLA [4]: −0.36
- CIBIC-PLUS mean [4]: 4.18
- ADAS-cog (change) LS Mean Diff., MEM v. PLA [5]: −1.39
- ADAS-cog (change) mean [5]: 0.86
- ADCS-ADL (change) LS Mean Diff., MEM v. PLA [5]: −2.66
- ADCS-ADL (change) mean [5]: −5.05
- CIBIC-PLUS Raw Mean Diff., MEM v. PLA [5]: no difference
- CIBIC-PLUS mean [5]: 4.36
- CIBIC-PLUS Raw Mean Diff., MEM v. PLA (baseline NPI agitation score ≧=4, listed as MEM): 0.0
- ADAS-cog (change) LS Mean Diff., MEM v. PLA (overall): −1.90
- ADAS-cog (change) LS mean (overall): −0.80
- ADCS-ADL (change) LS Mean Diff., MEM v. PLA (overall): 0.10
- ADCS-ADL (change) LS mean (overall): −2.90
- CIBIC-PLUS LS mean (overall): 4.20
- CIBIC-PLUS Raw Mean Diff., MEM v. PLA (overall): −0.30
